Three compounds from patent US11897902B1, “Nano-sized mixed ligand [4-bromo-2-(quinolin-2-yliminomethyl)-phenol imine- phenanthroline] Ru(III) complex for medicinal applications” (KING FAISAL UNIVERSITY, priority 2023, dated 2024) can be followed below.

What all share (format): cell-based
The subject of one experiment is Breast cancer cells line. Nature of the experiment: Cytotoxic activity, Sulfo-Rhodamine-B-stain (SRB). The settings on record: Homo sapiens, breast cancer cell line, 48 hours. How it is done:
The anticancer activity was made at the National Cancer Institute, Cancer Biology Department, Pharmacology Department, Cairo University. The absorbance or optical density (O.D.) of each well was measured spectrophotometrically at 564 (nm) with an “ELIZA” micro plate reader (Meter tech. Σ960, “USA”). Evaluation of the cytotoxic activity of the prepared nano-complex was carried out against Breast cancer cells line. The evaluation process was carried out in vitro using the Sulfo-Rhodamine-B-stain (SRB). Cells were placed in 96-multiwell plate (10^4 cells/well) for 24 hours before processing with the complexes to allow attachment of cell to the wall of the plate. Various concentrations of the compounds under test in DMSO (0, 1, 2.5, 5 and 10 μM) were added to the cell monolayer. Monolayer cells were incubated with the complexes for 48 hours at 37° C. and in atmosphere of 5% CO2. After 48 hours, cells were fixed, rinsed, and stained with Sulfo-Rhodamine-B-stain. Excess stain was washed with acetic acid and attached stain was treated with Tris EDTA buffer. Color intensity was measured in an ELISA reader. IC50 was evaluated and potency was calculated with regard to percentage of change of (vistabline standard). The relation between surviving fraction and compound concentration is plotted to get the survival curve of each tumor cell line after the specified compound. […]

The next experiment has as its system Aspergillus flavus. The experiment can be described thus: Antifungal activity, well diffusion method (inhibition zone, MIC). As for the experimental part:
To evaluate antimicrobial activity, the fungal strain (Aspergillus flavus), was used. These strains were cultured in nutrient agar and Muller-Hinton medium. Fluconazole compound was used as a standard drug for comparison.
Antifungal activities of the prepared nano-complex were studied against three fungal cultures using well diffusion method. The tested fungi were inoculated in Sabouraud dextrose broth medium (Hi-Media Mumbai) and incubated at 35° C. for 72 h and subsequently a suspension of about 1.60×10^4-6.00×10^4 c.f.u/ml was introduced agar plates and a sterile glass spreader was used for even distribution of the inoculum. The discs measuring 6 mm in diameter were prepared from Whatman No. 1 filter paper and sterilized by dry heat at 140° C. for 1 h. The sterile discs previously soaked in known concentration of the tested compounds were placed in Sabouraud dextrose Agar (SDA) plates. The plates were inverted and incubated at 35° C. for 7 days. The susceptibility was assessed on the basis of diameter of inhibition against albicans and non-albicans strain of fungi.
(A growth-free zone around the sample is the usual read-out of agar diffusion tests.)

The test system of another experiment is Escherichia coli(−ve). The experiment can be described thus: Antimicrobial activity, agar well diffusion (inhibition zone, MIC). Conditions: E. coli. As for the experimental part: To evaluate antimicrobial activity, the bacterial strain Escherichia coli(−ve), was used. These strains were cultured in a nutrient agar and Muller-Hinton medium. Ofloxacin compound was used as a standard drug for comparison.
The susceptibilities of such growth rate of microorganisms were measured in vitro by agar well diffusion method. The tested nano complex was dissolved in dimethyl sulfoxide at different concentrations (10 and 20 mg/ml). 1 cm^3 of a 24 h broth culture containing 10^6 CFU/cm^3 was placed in sterile Petri-dishes. Molten nutrient agar (15 cm 3) maintained at 45° C. was then poured into the Petri-dishes and allowed to solidify. Then holes of 6 mm diameter were formed in the agar using a sterile cork borer and these holes were completely filled with the test solutions. The plates were incubated for 24 h at 37° C. After the incubation period, the zone of inhibition of each well was determined by measuring the zones of growth inhibition (mm) against the test microorganisms with zone reader (Hi Antibiotic zone scale). […] The measurements were made in triplicate for each compound and their average values are reported.

In brackets after ≈: the same amount, converted by molar mass.

Usually IC50 stands for the concentration needed to halve the response being measured. Turning to `CC[C@]1(O)C[C@@H]2CN(CCc3c([nH]c4ccccc34)[C@@](C(=O)OC)(c3cc4c(cc3OC)N(C)[C@H]3[C@@](O)(C(=O)OC)[C@H](OC(C)=O)[C@]5(CC)C=CCN6CC[C@]43[C@@H]65)C2)C1` [vinblastine], in the experiment on Breast cancer cells line, the half-maximal inhibitory concentration (IC50) came to 4.5 µg/mL (≈ 5.55 µM).

What is called MIC is the smallest concentration in the dilution series that meets the test's criterion for growth inhibition. High values mean a less susceptible organism, low ones a more susceptible organism. On to `OC(Cn1cncn1)(Cn1cncn1)c1ccc(F)cc1F` [Fluconazol, Fluconazole], for which, in the experiment on Aspergillus flavus, the MIC was found to be 2 µg/mL (≈ 6.53 µM). Moreover, in the experiment with Aspergillus flavus (well diffusion, 35° C. for 7 days), the inhibition zone amounted to 24 mm.

With `CC1COc2c(N3CCN(C)CC3)c(F)cc3c(=O)c(C(=O)O)cn1c23` (centres unmarked) [Ofloxacin], the inhibition zone in the experiment with Escherichia coli(−ve) (agar well diffusion, 24 h at 37° C.) amounted to 35 mm. Moreover, 2.5 µg/mL (≈ 6.92 µM) was the least that counted as inhibitory in the experiment on Escherichia coli(−ve) (Escherichia coli) (MIC).
